Laboratory results taken from publication PMC7449170, “ATI-2173, a Novel Liver-Targeted Non-Chain-Terminating Nucleotide for Hepatitis B Virus Cure Regimens” (Antimicrobial Agents and Chemotherapy, 2020).
Entries after “also recorded” stand apart in the source; their conditions may differ.

Assays:
[1] = tested on: HBV genotype C (AB246345); experiment: microbe, parasite or virus in culture; assay type: cell-based; conditions: Hepatitis B virus, HepG2
[2] = Hepatic extraction in portal vein cannulated monkeys; assay type: in vivo; conditions: cynomolgus monkeys with portal vein cannulation, single oral 20 mg/kg and intravenous 2 mg/kg, data not shown
HBV genotype D [3] = experiment: Anti-HBV activity in HepG2.2.15 cells (extracellular HBV DNA by qPCR); assay type: cell-based; conditions: Hepatitis B virus, 192 h; HepG2.2.15 cells, qPCR, day 8; read-out: EC50, extracellular HBV DNA
Description: ATI-2173 was obtained from WuXi SynTheAll. Entecavir (positive control) was obtained from Shanghai Titan Scientific Co., Ltd. HepG2.2.15 cells (derived from human hepatoblastoma cell-like HepG2) contain four 5′ to 3′ tandem copies of the HBV genotype D and were provided by WuXi. HepG2.2.15 cells were cultured in Dulbecco’s modified Eagle medium (DMEM)/F12 (Invitrogen, 11330032) supplemented with 2% fetal bovine serum (FBS) (HyClone, SV30087.03), 1% L-glutamine, 1% minimum essential medium (MEM) nonessential amino acid solution (NEAA), and 1% penicillin-streptomycin solution. QIAamp 96 DNA blood kit was purchased from Qiagen (51162). […] Culture medium containing ATI-2173 or entecavir (serially diluted) was added to cells on day 2 and refreshed on day 5. ATI-2173 dilutions were: 0.0006, 0.0024, 0.0098, 0.0391, 0.1563, 0.6250, 2.5000, and 10.0000 μM. On day 8, cell culture supernatants were collected and DNA was extracted by the QIAamp 96 DNA blood kit. qPCR was run at 95°C for 10 min, then cycled at 95°C for 15 s, 60°C for 1 min, for a total of 40 cycles. HBV DNA content in the samples was calculated according to the standard curve and CT (cycle threshold of qPCR) values of a sample. Data were normalized for maximum and minimum copy numbers.

[4] = tested on: SkMC human skeletal muscle cells; experiment: Cytotoxicity in skeletal muscle cells (CellTiter-Glo); conditions: at 100 μM or greater, 72 h
Description: HK-2 human kidney cells were obtained from ATCC (Manassas, VA) and cultured in Gibco Keratinocyte serum-free medium (Thermo Fisher Scientific, Waltham, MA) supplemented with 10% FBS (Peak Serum, Wellington, CO). Human skeletal muscle cells were obtained from Lonza (Walkersville, MD) and cultured in SkGM-2 skeletal muscle cell growth medium-2 (Lonza). Both HK-2 and skeletal muscle cells were cultured humidified at 37°C and 5% CO2. Cryopreserved human primary hepatocytes and medium were received from Lonza. Cryopreserved iCell cardiomyocytes and cardiomyocyte medium were purchased from Stem Cell Technologies (Vancouver, BC, Canada). Cryopreserved human bone marrow mononuclear cells were purchased from Lonza with HemaTox Myeloid medium purchased from [sequence] […] All cryopreserved cells (human primary hepatocytes, iCell cardiomyocytes, and human bone marrow mononuclear cells) were stored in vapor phase liquid nitrogen until the day of plating. […] Serial dilutions of compounds in DMSO were as follows: 100, 10, 1, 0.1, 0.01, 0.001, 0.0001, and 0.00001 μM (final concentration of DMSO in medium was 0.5%). […]
Following incubation, cells were dosed and incubated for 72 h at 37°C and 5% CO2. Following incubation, the endpoint cell viability CellTiter-Glo 2.0 assay (Promega, San Luis Obispo, CA) was performed and luminescence data collected on a Synergy 4 plate reader (Biotek, Winooski, VT). […]

HBV genotype D [5] = experiment: microbe, parasite or virus in culture; conditions: Hepatitis B virus, Hepatocyte, 192 h, read-out: EC50, HBV DNA
Description: HBV genotype D was concentrated from HepDE19 culture supernatants (2.53 × 10^10 genome equivalents [GE]/ml) and provided by WuXi. On day 0, hepatocytes were seeded into a 48-well plate at a density of 1.32 × 10^5 cells/well. On day 1, hepatocytes were infected with 200 HBV GE/cell and were cultured at 37°C and 5% CO2. […] On day 8, the culture supernatants were collected and HBV DNA was harvested with QIAamp 96 DNA blood kit (Qiagen, 51162).

[6] = Pharmacokinetics and tissue concentration in rats after single oral dose; assay type: in vivo, Sprague-Dawley rats; conditions: single oral 50 mg/kg ATI-2173 vs 25 mg/kg clevudine
Description: Female Sprague Dawley (SD) rats (from Envigo, NJ), 225 to 249 g, were used in the studies. Clevudine and ATI-2173 were administered by oral gavage (p.o.) in carboxyl methyl cellulose/PEG 400/Tween 20 (0.5%/20%/5%). The oral doses were administered at 25 mg/kg and 50 mg/kg, respectively. Blood samples were collected at 1, 2, 4, 6, 8, and 24 h into lithium-heparin microtainer tubes (BD). Plasma samples were prepared within 30 min after collection by centrifugation at 2,000× rcf for 10 min at 4°C and stored at –80°C before processing for analysis by liquid chromatography-tandem mass spectrometry (LC-MS/MS). Rat organs (skeletal muscle, liver, and heart) were collected from all rats immediately following blood collection at all time points. The tissues were immediately snap-frozen in liquid nitrogen and stored at –80°C before processing for analysis by LC-MS/MS. […]
Samples were maintained at 4°C in a Leap Pal Autosampler (CTC Analytics AG, Zwingen, Switzerland). Plasma concentrations of ATI-2173 and clevudine were determined using qualified methods with an assay range of 10 to 1,000 ng/ml. […] QCs were prepared at 30, 500, and 900 ng/ml and were measured within ± 30% of actual values. […]
Tissue levels were measured according to qualified LC-MS/MS methods with an assay range of 18 to 18,000 ng/g of tissue. […]

HBV rtS202G+M204I+M250V = experiment: microbe, parasite or virus in culture; assay type: cell-based; conditions: Hepatitis B virus, HepG2
herpes simplex virus 1 = experiment: Antiviral panel: herpes simplex virus 1; assay type: cell-based; conditions: up to 100 μM, data not shown
influenza virus = assay type: cell-based
HBV rtS202G+M204I = experiment: microbe, parasite or virus in culture; assay type: cell-based; conditions: Hepatitis B virus, HepG2
HBV rtM204I = experiment: microbe, parasite or virus in culture; assay type: cell-based; conditions: Hepatitis B virus, HepG2

SMILES: Cc1cn(C2OC(COP(=O)(NC(C)C(=O)OC(C)C)Oc3ccccc3)C(O)C2F)c(=O)[nH]c1=O (centres unmarked) [ATI-2173]
- EC50 [1]: 227 nM
- Hepatic extraction [2]: 82%
- EC50 (HBV genotype D [3]): 260 nM
- Cytotoxicity [4]: Minimal cytotoxicity; also recorded: very mild
- EC50 (HBV genotype D [5]): 1.31 nM
- Liver exposure to the 5′-triphosphate versus equimolar clevudine [6]: nearly identical liver exposure
- EC50 (HBV rtS202G+M204I+M250V): > 10 µM
- Antiviral efficacy (herpes simplex virus 1): no detectable efficacy
- Antiviral efficacy (influenza virus): no detectable efficacy
- EC50 (HBV rtS202G+M204I): > 10 µM
- EC50 (HBV rtM204I): > 10 µM
